The values below come from patent publication US8426449B2, “Aminoalkylphenyl antagonists of prostaglandin D2 receptors” (Panmira Pharmaceuticals, LLC, priority 2008, dated 2013).

Structures are written as SMILES. pIC50: −log10 of the molar value.

The target of this test is T1, human DP2 receptor (Homo sapiens, UniProt Q9Y5Y4).
T1 construct: expressed in transfected cells
T1 sequence (Q9Y5Y4 1-395): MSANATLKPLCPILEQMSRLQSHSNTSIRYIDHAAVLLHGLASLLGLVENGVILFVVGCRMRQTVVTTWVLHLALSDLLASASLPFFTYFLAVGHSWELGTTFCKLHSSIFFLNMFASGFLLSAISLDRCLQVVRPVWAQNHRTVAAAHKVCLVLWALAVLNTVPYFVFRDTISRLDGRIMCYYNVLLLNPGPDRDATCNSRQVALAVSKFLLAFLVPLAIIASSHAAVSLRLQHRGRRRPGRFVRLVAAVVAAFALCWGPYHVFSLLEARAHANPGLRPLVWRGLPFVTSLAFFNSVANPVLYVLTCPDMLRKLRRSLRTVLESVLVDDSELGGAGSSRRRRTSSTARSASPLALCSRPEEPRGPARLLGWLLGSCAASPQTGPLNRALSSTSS
The test is described as follows: DP2/CRTH2 radioligand binding assay using [3H]PGD2. As to conditions: hDP2 (CRTH2) binding assay, membranes of HEK293 cells expressing recombinant human DP2. The procedure:
The ability of a compound to bind to the human DP2 receptor is assessed via a radioligand binding assay using [^3H]PGD2. HEK293 cells stably expressing recombinant human DP2 are resuspended in 10 mM Hepes, 7.4 containing 1 mM DTT, lysed and centrifuged at 75,000×g to pellet the membranes. The membranes are resuspended in 10 mM Hepes, 7.4 containing 1 mM DTT and 10% glycerol to approximately 5 mg protein/ml. Membranes (2-10 μg protein/well) are incubated in 96-well plates with 1 nM [^3H]PGD2 and test compound in Assay Buffer (50 mM Hepes, 10 mM MnCl2, 1 mM EDTA, plus or minus 0.2% human serum albumin, pH 7.4) for 60 minutes at room temperature. The reactions are terminated by rapid filtration through Whatman GF/C glass fibre filter plates. The filter plates were pre-soaked in 0.33% polyethylenimine for 30 minutes at room temperature then washed in Wash Buffer (50 mM Hepes, 0.5 M NaCl pH 7.4) prior to harvesting. After harvesting, the filter plates are washed 3 times with 1 ml cold Wash Buffer then dried. Scintillant is then added to the plates and the radioactivity retained on the filters is determined on a Packard TopCount (Perkin Elmer). Specific binding is determined as total radioactive binding minus non-specific binding in the presence of 10 μM PGD2. IC50s were determined using GraphPad prism analysis of drug titration curves.
For the compound `CCN(Cc1cc(C(F)(F)F)ccc1Oc1cccc(CC(=O)O)c1)S(=O)(=O)c1ccc(OC)cc1` [Compound 1-26, [3-(2-{[Ethyl-(4-methoxy-benzenesulfonyl)-amino]-methyl}-4-trifluoromethyl-phenoxy)-phenyl]-acetic acid], the pIC50 is more than 6.52.
The figure for `CCN(Cc1cc(C(F)(F)F)ccc1Oc1cccc(CC(=O)O)c1)S(=O)(=O)c1ccc(C)cc1` [Compound 1-27, [3-(2-{[Ethyl-(toluene-4-sulfonyl)-amino]-methyl}-4-trifluoromethyl-phenoxy)-phenyl]-acetic acid] is more than 6.52; for `CCN(Cc1cc(C(F)(F)F)ccc1Oc1cccc(CC(=O)O)c1)S(=O)(=O)c1ccc(S(C)(=O)=O)cc1` [Compound 1-28, [3-(2-{[Ethyl-(4-methanesulfonyl-benzenesulfonyl)-amino]-methyl}-4-trifluoromethyl-phenoxy)-phenyl]-acetic acid] it is less than 6.52; for `CCN(Cc1cc(C(F)(F)F)ccc1Oc1cccc(CC(=O)O)c1)S(=O)(=O)c1ccc(C(C)=O)cc1` [Compound 1-29, [3-(2-{[(4-Acetyl-benzenesulfonyl)-ethyl-amino]-methyl}-4-trifluoromethyl-phenoxy)-phenyl]-acetic acid] it is more than 6.52.
With `CCN(Cc1cc(C(F)(F)F)ccc1Oc1cccc(CC(=O)O)c1)S(=O)(=O)c1ccc2ccccc2c1` [Compound 1-30, [3-(2-{[Ethyl-(naphthalene-2-sulfonyl)-amino]-methyl}-4-trifluoromethyl-phenoxy)-phenyl]-acetic acid], the negative logarithm of the IC50 (pIC50) is more than 6.52.
As for `CCN(Cc1cc(C(F)(F)F)ccc1Oc1cccc(CC(=O)O)c1)S(=O)(=O)c1ccc(Br)cc1` [Compound 1-31, [3-(2-{[(4-Bromo-benzenesulfonyl)-ethyl-amino]-methyl}-4-trifluoromethyl-phenoxy)-phenyl]-acetic acid], the figure is more than 6.52; as for `CCN(Cc1cc(C(F)(F)F)ccc1Oc1cccc(CC(=O)O)c1)S(=O)(=O)c1ccc(Nc2cccc(C)c2)cc1` [Compound 1-32, [3-(2-{[Ethyl-(4-m-tolylamino-benzenesulfonyl)-amino]-methyl}-4-trifluoromethyl-phenoxy)-phenyl]-acetic acid], more than 6.52; as for `CCN(Cc1cc(C(F)(F)F)ccc1Oc1cccc(CC(=O)O)c1)S(=O)(=O)c1ccc(N(C)c2cccc(C)c2)cc1` [Compound 1-33, {3-[2-({Ethyl-[4-(methyl-m-tolyl-amino)-benzenesulfonyl]-amino}-methyl)-4-trifluoromethyl-phenoxy]-phenyl}-acetic acid], more than 6.52.
The figure for `CCN(Cc1cc(C(F)(F)F)ccc1Oc1cc(CC(=O)O)ccc1OC)C(C)=O` [Compound 1-34, (3-{2-[(Acetyl-ethyl-amino)-methyl]-4-trifluoromethyl-phenoxy}-4-methoxy-phenyl)-acetic acid] is less than 6.52; for `COc1ccc(CC(=O)O)cc1Oc1ccc(C(F)(F)F)cc1CN(Cc1ccccc1)C(C)=O` [Compound 1-35, (3-{2-[(Acetyl-benzyl-amino)-methyl]-4-trifluoromethyl-phenoxy}-4-methoxy-phenyl)-acetic acid] it is more than 6.52; for `CCN(Cc1cc(C(F)(F)F)ccc1Oc1cc(CC(=O)O)ccc1OC)C(=O)OC` [Compound 1-36, (3-{2-[(Ethyl-methoxycarbonyl-amino)-methyl]-4-trifluoromethyl-phenoxy}-4-methoxy-phenyl)-acetic acid] it is less than 6.52.
As for `COC(=O)N(Cc1ccccc1)Cc1cc(C(F)(F)F)ccc1Oc1cc(CC(=O)O)ccc1OC` [Compound 1-37, (3-{2-[(Benzyl-methoxycarbonyl-amino)-methyl]-4-trifluoromethyl-phenoxy}-4-methoxy-phenyl)-acetic acid], the figure is more than 6.52.
Turning to `COC(=O)N(Cc1cc(NC(C)=O)ccc1Oc1cccc(CC(=O)O)c1)[C@@H](C)Cc1ccccc1` [Compound 1-38, [3-(4-Acetylamino-2-{[methoxycarbonyl-((S)-1-methyl-2-phenyl-ethyl)-amino]-methyl}-phenoxy)-phenyl]-acetic acid], the pIC50 was more than 6.52.
As for `COC(=O)N(Cc1cc(N(C)C(C)=O)ccc1Oc1cccc(CC(=O)O)c1)[C@@H](C)Cc1ccccc1` [Compound 1-39, [3-(4-(Acetyl-methyl-amino)-2-{[methoxycarbonyl-((S)-1-methyl-2-phenyl-ethyl)-amino]-methyl}-phenoxy)-phenyl]-acetic acid], the figure is less than 6.52; as for `COC(=O)N(Cc1cc(N(C)C(C)=O)ccc1Oc1cccc(C(C)C(=O)O)c1)[C@@H](C)Cc1ccccc1` (stereo partly drawn) [Compound 1-40, 2-[3-(4-(Acetyl-methyl-amino)-2-{[methoxycarbonyl-((S)-1-methyl-2-phenyl-ethyl)-amino]-methyl}-phenoxy)-phenyl]-propionic acid], less than 6.52; as for `COC(=O)N(Cc1cc(NS(C)(=O)=O)ccc1Oc1cccc(CC(=O)O)c1)[C@@H](C)Cc1ccccc1` [Compound 1-41, [3-(4-Methanesulfonylamino-2-{[methoxycarbonyl-((S)-1-methyl-2-phenyl-ethyl)amino]-methyl}-phenoxy)-phenyl]-acetic acid], more than 6.52.
In the case of `COC(=O)N(Cc1cc(N(C)S(C)(=O)=O)ccc1Oc1cccc(CC(=O)O)c1)[C@@H](C)Cc1ccccc1` [Compound 1-42, [3-(4-(Methanesulfonyl-methyl-amino)-2-{[methoxycarbonyl-((S)-1-methyl-2-phenyl-ethyl)-amino]-methyl}-phenoxy)-phenyl]-acetic acid], the pIC50 is less than 6.52.
The figure for `COC(=O)N(Cc1cc(N(C)S(C)(=O)=O)ccc1Oc1cccc(C(C)C(=O)O)c1)[C@@H](C)Cc1ccccc1` (stereo partly drawn) [Compound 1-43, 2-[3-(4-(Methanesulfonyl-methyl-amino)-2-{[methoxycarbonyl-((S)-1-methyl-2-phenyl-ethyl)-amino]-methyl}-phenoxy)-phenyl]-propionic acid] is less than 6.00.
As for `CCN(Cc1cc(NC(=O)c2ccc(Cl)cc2)ccc1Oc1cc(CC(=O)O)ccc1OC)C(=O)OCc1ccccc1` [Compound 1-44, {3-[2-[(Benzyloxycarbonyl-ethyl-amino)-methyl]-4-(4-chloro-benzoylamino)-phenoxy]-4-methoxy-phenyl}-acetic acid], the figure is more than 6.52; as for `CCN(Cc1cc(NC(=O)C(C)(C)C)ccc1Oc1cc(CC(=O)O)ccc1OC)C(C)=O` [Compound 1-45, {3-[2-[(Acetyl-ethyl-amino)-methyl]-4-(2,2-dimethyl-propionylamino)-phenoxy]-4-methoxy-phenyl}-acetic acid], more than 6.52.
As for `CCN(Cc1cc(NC(=O)c2ccc(Cl)cc2)ccc1Oc1cc(CC(=O)O)ccc1OC)C(C)=O` [Compound 1-46, {3-[2-[(Acetyl-ethyl-amino)-methyl]-4-(4-chloro-benzoylamino)-phenoxy]-4-methoxy-phenyl}-acetic acid], the figure is more than 6.52; as for `CCN(Cc1cc(NC(=O)C(C)(C)C)ccc1Oc1cc(CC(=O)O)ccc1OC)C(=O)C1CC1` [Compound 1-47, {3-[2-[(Cyclopropanecarbonyl-ethyl-amino)-methyl]-4-(2,2-dimethyl-propionylamino)-phenoxy]-4-methoxy-phenyl}-acetic acid], more than 6.52.
For the compound `CCN(Cc1cc(NC(=O)c2ccc(Cl)cc2)ccc1Oc1cc(CC(=O)O)ccc1OC)C(=O)C1CC1` [Compound 1-48, (3-{4-(4-Chloro-benzoylamino)-2-[(cyclopropanecarbonyl-ethyl-amino)-methyl]-phenoxy}-4-methoxy-phenyl)-acetic acid], the pIC50 was more than 6.52.
With `O=C(O)CCn1c2c(c3ccccc31)C[C@H](NS(=O)(=O)c1ccc(F)cc1)CC2` [Ramatroban, reference compound], the pIC50 was less than 6.52.
